Laboratory results reported in publication PMC6022709 (BMC Research Notes, 2018).
≈ marks a conversion by molar mass, not a printed value. Numbered stars: 1 amine (or outer) side, 2 acyl side, 3 side chain; on linkers, the order of the positions; unused ones are H or OH. Square brackets hold non-standard residues; d marks the D form. Peptide text beside a SMILES is read from it. ξ: configuration not given here. X1 = CC[C@H](C)[C@@H](C(=O)[*:2])N(O)[*:1]; ξPiz(1,6-dehydro) = O=C(O)C1CCC=NN1; ξN(OH)Ile(3ξ) = CCC(C)C(NO)C(=O)O; dNMeF = CN[C@H](Cc1ccccc1)C(=O)O; NMeF = CN[CH](Cc1ccccc1)C(=O)O; X2 = O=C(C1CCCNN1[*:1])[*:2]; Pip = O=C(O)[C@@H]1CCCCN1; dPip = O=C(O)[C@H]1CCCCN1

Legend:
[1] = tested on: M. tuberculosis WT; format: cell-based, Mycobacterium tuberculosis
[2] = tested on: M. tuberculosis H37Rv-LP (ATCC 25618) expressing a red fluorescent protein; settings: for MIC90: H37Rv
[3] = tested on: M. tuberculosis H37Rv-LP (ATCC 25618) expressing a red fluorescent protein; experiment: microbe, parasite or virus in culture; settings: Mycobacterium tuberculosis

Compound	MIC90 [2] [µM]	further results
CC(C)CC1C(=O)N2NCCCC2C(=O)N2NCCCC2C(=O)N(C)C(Cc2ccccc2)C(=O)N2CCCC2C(=O)NC(Cc2ccccc2)C(=O)N1O (stereo not drawn) [Compound 1, cyclo[N-(Me)Phe-Pro-Phe-N-(OH)Leu-Piz-Piz]]	2.3 ± 0.5 (≈ 1.75 µg/mL)	MIC99 [1]: 1.6 µM (≈ 1.21 µg/mL)
CCC(C)C1C(=O)N2NCCCC2C(=O)N2NCCCC2C(=O)N(C)C(Cc2ccccc2)C(=O)N2CCCC2C(=O)NC(Cc2ccccc2)C(=O)N1O (stereo not drawn) [Compound 2] (cyclo([ξN(OH)Ile(3ξ)][X2][X2][NMeF]PF); configuration not given here)	2.8 ± 0.8 (≈ 2.12 µg/mL)	
CC(C)CC1C(=O)N2NCCCC2C(=O)N2NCCCC2C(=O)N(C)C(Cc2ccccc2)C(=O)N2CCCC2C(=O)NC(C(C)C)C(=O)N1O (stereo not drawn) [Compound 3]	8.9 ± 1.8 (≈ 6.33 µg/mL)	MIC99 [1]: 0.8 µM (≈ 0.569 µg/mL)
CCC(C)C1C(=O)N2CCCC2C(=O)NC(CC(C)C)C(=O)N(O)C(CC(C)C)C(=O)N2NCCCC2C(=O)N2NCCCC2C(=O)N1C (stereo not drawn) [Compound 4]	7.3 ± 1.9 (≈ 5.04 µg/mL)	
CC[C@H](C)[C@H]1C(=O)N2NCCC[C@@H]2C(=O)N2NCCC[C@H]2C(=O)N(C)[C@H](Cc2ccccc2)C(=O)N2CCC[C@H]2C(=O)N[C@H](Cc2ccccc2)C(=O)N1CC(C)=O [Compound 5]	8.2 ± 1.2 (≈ 6.55 µg/mL)	
CCC(C)C1NC(=O)C(Cc2ccccc2)NC(=O)C2CCCN2C(=O)C(Cc2ccccc2)N(C)C(=O)C2CCC=NN2C(=O)C2CCC=NN2C1=O (stereo not drawn) [Compound 7] (cyclo([ξPiz(1,6-dehydro)][ξPiz(1,6-dehydro)][NMeF]PFI); configuration not given here)	> 20	
CC[C@H](C)[C@H]1C(=O)N2CCCC[C@@H]2C(=O)N2CCCC[C@H]2C(=O)N(C)[C@H](Cc2ccccc2)C(=O)N2CCC[C@H]2C(=O)N[C@H](Cc2ccccc2)C(=O)N1O [Compound 15] (cyclo([dNMeF]P[dF][X1][dPip][Pip]))	> 20	anti-tubercular activity (in words) [2]: loss of anti-tubercular activity
CCCC1C(=O)N2CCCC2C(=O)NC(CC(C)C)C(=O)N(O)C(CC(C)C)C(=O)N2NCCCC2C(=O)N2NCCCC2C(=O)N1C (stereo not drawn) [Compound 16]	> 20	
CO[C@H]1/C=C/O[C@@]2(C)Oc3c(C)c(O)c4c(O)c(c(/C=N/N5CCN(C)CC5)c(O)c4c3C2=O)NC(=O)/C(C)=C\C=C\[C@H](C)[C@H](O)[C@@H](C)[C@@H](O)[C@@H](C)[C@H](OC(C)=O)[C@@H]1C [Rifampicin]		MIC [3]: 0.0077 µM (≈ 0.00634 µg/mL)
